The values that follow come from US11987559B1, “1-(4-bromobenzylideneamino)-5-phenylimidazolidine-2,4-dione as an antimicrobial compound” (KING FAISAL UNIVERSITY, priority 2023, dated 2024).

Assay type in all cases: cell-based
The test system of test [1] is Bacillus cereus. As to the kind of experiment: agar plate disc-diffusion, antibacterial inhibition zone. As to conditions: nutrient agar, 37° C., 48 hours. As for the experimental part: (§1) The agar plate disc-diffusion method was applied. […] The discs were then placed onto the surface of agar plates (nutrient agar for bacteria and Sabouraud's dextrose agar for fungi) seeded with the test organism. Each plate contained 15 mL of the agar medium, previously seeded with 0.2 mL of the broth culture of each organism pregrown for 18 hours. The plates were incubated at 37° C. for 48 hours, and 72 hours for fungi. The inhibition zones were measured in millimeters (mm). Discs impregnated with DMSO were used as a control, and its inhibition zone was subtracted from the tested compound's actual inhibition zone.

Test [2] has as its system Escherichia coli. The description is as above. As to conditions: nutrient agar, 37° C., 48 hours. As for the experimental part: as §1
The test system of test [3] is Pseudomonas aeruginosa. The test is described as above. As to conditions: nutrient agar, 37° C., 48 hours. The method, then:
as §1

Test [4] concerns Staphylococcus aureus. The test is described as above. As to conditions: nutrient agar, 37° C., 48 hours. The method, then: as §1
Test [5] concerns Aspergillus flavus. Description: agar plate disc-diffusion, antifungal inhibition zone. As to conditions: Sabouraud's dextrose agar, 72 hours. As for the experimental part:
as §1

The test system of test [6] is Chrysosporium keratinophilum. The description is as above. To be noted: Sabouraud's dextrose agar, 72 hours. As for the experimental part:
as §1

Test [7] concerns different microbes. Description: antimicrobial testing, overall statement. As to conditions: result in words; bacteria and fungi of tables 1, 2. The method, then: The agar plate disc-diffusion method was applied. Sterilized filter papers (6 mm in diameter) were wetted with 10 μL of a solution of 1-(4-bromobenzylideneamino)-5-phenylimidazolidine-2,4-dione (4) to be tested, containing 10 mg/mL in DMSO, and the discs were allowed to air dry. The discs were then placed onto the surface of agar plates (nutrient agar for bacteria and Sabouraud's dextrose agar for fungi) seeded with the test organism. Each plate contained 15 mL of the agar medium, previously seeded with 0.2 mL of the broth culture of each organism pregrown for 18 hours. The plates were incubated at 37° C. for 48 hours, and 72 hours for fungi. The inhibition zones were measured in millimeters (mm). Discs impregnated with DMSO were used as a control, and its inhibition zone was subtracted from the tested compound's actual inhibition zone.

Setting [8] is: A = concentration of comp. = 10,000 μL.
Where [9] appears, read: B = concentration of comp. = 30.000 μL.
Where [10] appears, read: C = concentration of comp. = 50,000 μL.

For `O=C(O)c1cn(C2CC2)c2cc(N3CCNCC3)c(F)cc2c1=O` [Cip., reference compound], the inhibition zone in test [1] (setting [8]) is 29 mm; in test [1] (setting [9]), 30 mm; in test [1] (setting [10]), 42 mm; in test [2] (setting [8]), 30 mm; in test [2] (setting [9]), 39 mm; in test [2] (setting [10]), 60 mm. Besides, the inhibition zone in test [3] (setting [8]) amounted to 29 mm; in test [3] (setting [9]), 30 mm; in test [3] (setting [10]), 53 mm; in test [4] (setting [8]), 43 mm; in test [4] (setting [9]), 44 mm; in test [4] (setting [10]), 53 mm. The inhibition zone in test [5] (setting [8]) amounted to 29 mm; in test [5] (setting [9]) it was 30 mm; in test [5] (setting [10]) it was 42 mm; in test [6] (setting [8]), 29 mm; in test [6] (setting [9]), 30 mm; in test [6] (setting [10]), 53 mm.
Turning to `O=C1NC(=O)N(/N=C/c2ccc(Br)cc2)C1c1ccccc1` (stereo not shown) [Compound 4, 1-(4-bromobenzylideneamino)-5-phenylimidazolidine-2,4-dione], the inhibition zone in test [1] (setting [8]) was found to be 27 mm; in test [1] (setting [9]), 29 mm; in test [1] (setting [10]) it was 28 mm; in test [2] (setting [8]) it was 24 mm; in test [2] (setting [9]) it was 30 mm; in test [2] (setting [10]), 48 mm. The inhibition zone is recorded as 23 mm in test [3] (setting [8]); 27 mm in test [3] (setting [9]); 34 mm in test [3] (setting [10]); 15 mm in test [4] (setting [8]); 23 mm in test [4] (setting [9]); 26 mm in test [4] (setting [10]). Also, the inhibition zone in test [5] (setting [8]) was determined as 19 mm; in test [5] (setting [9]), 24 mm; in test [5] (setting [10]) it was 35 mm; in test [6] (setting [8]), 26 mm; in test [6] (setting [9]), 29 mm; in test [6] (setting [10]) it was 45 mm. In test [7], the “antimicrobials activities against different microbes” value is “excellent”.
